Each block holds one substance with its values, some of them ahead of it. Where no end group is shown, it is not given here.
Legend:
HEK293 cells [1] = test: In vitro luciferase expression in HEK293 (Example 1); assay type: cell-based, human
Method: (§1) In vitro luciferase and GFP expression: HEK 293 and HepG2 cells were maintained in Dulbecco's modified Eagle's medium (DMEM) and 4T1 cells were cultured in RPMI 1640 growth medium at 37° C. with 5% CO2. All growth media used were completed with 10% fetal bovine serum, 100 μg/mL of streptomycin and 100 U/ml of penicillin.
(§2) One day before transfection, cells were seeded at a density that depended on the cell line and type of experiments. For the luciferase transfection assay, 0.5 mL of medium containing 5-8×10^4 cells were seeded into each well of a 24-well plate, while 1.0 mL of medium containing 1.8-2.0×10^5 cells were pipetted into each well of a 12-well plate for GFP expression. Peptide/DNA complexes were formed at various N/P ratios in 10 mM PBS (pH 7.0) by dripping equivolume solutions of peptide into DNA. The mixture was then vortexed for ˜10 seconds and left to stand for at least 30 minutes before usage. Meanwhile, all media were replaced with fresh ones. […]
(§3) Analysis for luciferase expression was carried out after 3 days. […] The relative light unit (RLU) was measured with a luminometer (Lumat LB 9507, EG&G Berthold) and normalized against the protein concentration as measured with a bicinchoninic acid protein assay kit (Pierce). Luciferase activity was finally expressed as RLU/mg protein ±standard deviation of at least 4 samples. […]

HepG2 cells = test: In vitro luciferase expression in HepG2 (Example 1); assay type: cell-based, human
Method: as §1, §2, §3

HEK293 cells [2] = test: GFP transfection assay in HEK293; assay type: cell-based, human
Method: as §1, §2
For the GFP transfection assay, cells were harvested after 2 days. […] The percentage of cells expressing GFP was then determined using a flow cytometer (FACSCalibur, Becton Dickinson) from 10,000 events and reported as a mean±standard deviation of at least 4 samples. […]

plasmid DNA = test: Agarose gel electrophoresis DNA binding assay (Example 1); conditions: 10 mM PBS pH 7.0; for N/P ratio at which bulk electrophoretic migration of DNA is retarded: N/P = arginine residues to DNA phosphorus
Method: DNA binding and protection assays: Agarose gel electrophoresis was conducted to study the DNA binding ability of the peptides. The peptide/DNA complexes containing 2.5 μg of DNA per 50 μL of solution were formed at various N/P ratios. The complex solution (10 μL), together with 2 μL of loading dye (Promega), were then loaded into the wells of a 1.0 wt % agarose gel preloaded with 2 μL of ethidium bromide (per 50 mL of gel solution), and electrophoresed at 80 V for 50 minutes prior to imaging (ChemiGenius Q, Syngene).
To evaluate the ability of the peptides to fully condense DNA so as to prevent its premature degradation en route to the nuclei of cells, plasmid DNA encoding the 6.4 kb firefly luciferase (pCMV-luciferase VR1255_C) driven by the cytomegalovirus (CMV) promoter (Carl Wheeler, Vical, U.S.A.) was bound to each peptide in 10 mM phosphate-buffered saline (PBS, pH 7.0) at various N/P ratios (defined here as the molar ratio of arginine residues in the peptide to the phosphorus content in DNA). Gel electrophoresis assays were then performed.

[3] = Zeta potential of pure peptide; assay type: physicochemical
DNA = test: Kinetics of DNA capture (PicoGreen); assay type: binding
Method: Upon condensation of the DNA, however, PicoGreen becomes excluded resulting in a drop in florescent intensity. Making use of this behavior, the kinetics of the DNA capturing process was traced and quantified. At time=0, the peptide solution was dripped into the DNA solution and vortexed for ˜10 seconds. At appropriate time intervals, 10 μL of the complex solution was taken out and mixed with 990 μL of PicoGreen working solution (diluted 400 times from its stock solution with TE buffer, pH 7.3). The fluorescence emission spectrum was then recorded with a Fluorolog LFI 3751 fluorescence spectrometer (Jobin Yvon Horiba). The excitation wavelength used was 480 nm and the silts were set to 4 nm. The fluorescence area intensity at any time point expressed as a percentage of the fluorescence intensity obtained with the initial concentration of DNA (before mixing with peptide) was used to reflect the concentration of uncaptured/loosely captured DNA. A profile was plotted to trace the temporal evolution of the DNA capturing process. Blanks and background were corrected for in all calculations.
To further understand the efficiency and kinetics of DNA capture by the peptides, PicoGreen was used as a sensitive fluorescence probe. […] This behavior can be employed to trace the temporal evolution of free/loosely bound DNA in solution.

4T1 cells = test: In vitro luciferase expression in 4T1 (Example 1); assay type: cell-based, mouse
Method: as §1, §2, §3

[4] = MTT cytotoxicity assay in 4T1 (Example 1); assay type: cell-based; conditions: mouse, 4T1 cells; read-out: cells viable at peak luciferase expression
Method: Cytotoxicity assay: Cells were seeded onto 96-well plates at a density of 6-10×10^3 cells/well. After 24 hours, all media were replaced with fresh ones and 10 μL of sample was introduced into each well. The sample consisted of either pure peptide or […] dissolved in the medium at the desired concentration. After 4 hours, all media were aspirated and replaced with fresh ones. Cytotoxicity analysis was carried out 3 days later by first replacing all wells with fresh media and adding 20 μL of MTT (5 mg/mL in PBS). After incubating for another 3 hours, all wells were carefully aspirated and replaced with 0.15 mL of DMSO to dissolve the internalized purple formazan crystals. The solution was homogenised and the relative colour intensity was measured with a microplate reader (PowerWave X, Bio-Tek Inc.). A test wavelength of 550 nm and a reference wavelength of 690 nm were used. Cell viability was represented by the average of (absorbance550 nm−absorbance690 nm) of the sample expressed as a percentage of the intensity of the controls ±standard deviation. Each data point was repeated at least 8 times.
For complexes of F, I and W, a peptide concentration of 0.02 and 0.10 mg/mL will approximately correspond to N/P ratio 5 and 25, respectively. For H, a peptide concentration of 0.03 and 0.09 mg/mL will approximately correspond to N/P ratio 10 and 30. […]

[5] = system: subcutaneous 4T1 breast tumors; test: In vivo luciferase expression in 4T1 tumor-bearing mice
Method: In vivo luciferase expression: Female Balb/c mice (Centre for Animals Resources, National University of Singapore) weighing 18-20 g were subcutaneously injected with 0.1 mL of serum-free RPMI 1640 containing 4×10^5 4T1 cells. A tumor was then allowed to develop in each mouse for 10-12 days. PEI and different formulations of I/DNA complexes were prepared as above, and 30 μl of sample containing 4 μg of DNA was injected directly into each tumor. The tumor tissues were harvested two days later. To analyse for luciferase activity, each tumor was first thoroughly homogenised in lysis buffer, followed by two further freeze-thaw cycles. The mixture was then centrifuged and assayed for its luciferase activity as described above. Expression level was given as RLU/mg protein ±standard deviation of at least 4 mice.
Finally, the in vivo gene transfection capacity of the peptides was evaluated by performing luciferase expression experiments with peptide I on mice bearing subcutaneous 4T1 breast tumors. […] This may be because the amount of DNA being delivered by the supernatant and sediment formulations was smaller. The large DNA complexes might also not be uniformly distributed in the tumor, limiting the cellular uptake of the large complexes. […]

[6] = system: HEK293, HepG2 and 4T1 cells; test: In vitro luciferase expression, all three cell lines (Example 1); assay type: cell-based, human, mouse; conditions: all cell lines tested
Method: as §1, §2, §3

Substance: FFFFFHHHHRRRRRRRR-NH2 [F, NH2—F5H4R8—CONH2]
luciferase expression level compared among the peptides (HEK293 cells [1]): highest luciferase expression level
luciferase expression level, times that of PEI (HEK293 cells [1]): 0.8 times
luciferase expression level compared among the peptides (HepG2 cells): highest luciferase expression level
luciferase expression level, times that of PEI (HepG2 cells): 0.2 times
proportion of cells transfected with the GFP gene, comparison (HEK293 cells [2]): transfected more HEK293 cells with the GFP gene than H

N/P ratio from which ethidium bromide is completely excluded from the condensed DNA (plasmid DNA): ≥ 5
N/P ratio at which bulk electrophoretic migration of DNA is retarded (plasmid DNA): 2
zeta potential of pure peptide [3]: 15.8±0.2 mV
Substance: IIIIIHHHHRRRRRRRR-NH2 [I, NH2—I5H4R8—CONH2]
quenching of PicoGreen fluorescence compared with H (DNA): to a greater extent
luciferase expression level compared among the peptides (4T1 cells; 4T1): optimal
peak luciferase expression level, times higher than PEI (4T1 cells; 4T1 cells, PEI branched Mw 25,000): 6.4 times
viability at 4 h [4]: ~90%
gene expression in mouse breast cancer model compared with PEI [5]: much more efficiently than PEI

Substance: NH2—H4R8—CONH2
N/P ratio at which bulk electrophoretic migration of DNA is retarded (plasmid DNA): 5
zeta potential of pure peptide [3]: 8.0±0.2 mV

Substance: NH2—W5H4R8—CONH2 (H-WWWWWHHHHRRRRRRRR-NH2)
gene expression level compared among the peptides [6]: lowest gene expression level
